Assay results from the supplement of paper PMC10307832.

Key:
Assay in all cases: relative viability (nuclei count vs DMSO), 5 days (fraction); higher = more cells survive
LCLC-103H = system: LCLC-103H
Outline: (§1)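 Relative viability is defined as nuclei in treated wells over nuclei in vehicle wells. Duplicate plates were run and medians reported. Lung cancer cell lines in 1536-well plates were dosed by pin tool one day after seeding, with one drug or with a fixed anchor-drug dose plus five library-drug doses (not always all listed) in √10 steps, and nuclei were counted after 5 days.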

LOU-NH91 = system: LOU-NH91
Outline: as §1

NCI-H1734 = system: NCI-H1734
Outline: as §1

NCI-H1355 = system: NCI-H1355
Outline: as §1

NCI-H2342 = system: NCI-H2342
Outline: as §1

NCI-H1666 = system: NCI-H1666
Outline: as §1

NCI-H441 = system: NCI-H441
Outline: as §1

RERF-LC-KJ = system: RERF-LC-KJ
Outline: as §1

SK-LU-1 = system: SK-LU-1
Outline: as §1

H3255 = system: H3255
Outline: as §1

NCI-H1975 = system: NCI-H1975
Outline: as §1

NCI-H647 = system: NCI-H647
Outline: as §1

NCI-H1793 = system: NCI-H1793
Outline: as §1

NCI-H1915 = system: NCI-H1915
Outline: as §1

NCI-H1944 = system: NCI-H1944
Outline: as §1

NCI-H1651 = system: NCI-H1651
Outline: as §1

NCI-H2023 = system: NCI-H2023
Outline: as §1

UMC-11 = system: UMC-11
Outline: as §1

NCI-H2405 = system: NCI-H2405
Outline: as §1

201T = system: 201T
Outline: as §1

EPLC-272H = system: EPLC-272H
Outline: as §1

In the case of `COCC1(CO)C(=O)C2CCN1CC2` (stereo not given) [PRIMA-1MET] + Cc1cc(Nc2cc(N3CCN(C)CC3)nc(Sc3ccc(NC(=O)C4CC4)cc3)n2)n[nH]1 [Tozasertib] (partner 0.1 µM), the relative viability (LCLC-103H; first compound 0.2 µM) is reported as 0.554, the relative viability (LCLC-103H; first compound 0.6325 µM) is reported as 0.453 and the relative viability (LCLC-103H; first compound 2 µM) is reported as 0.393. It also gave a relative viability (LCLC-103H; first compound 6.325 µM) of 0.419, a relative viability (LCLC-103H; first compound 20 µM) of 0.161 and a relative viability (LOU-NH91; first compound 0.2 µM) of 0.618. It also gave a relative viability (LOU-NH91; first compound 0.6325 µM) of 0.673, a relative viability (LOU-NH91; first compound 2 µM) of 0.625 and a relative viability (LOU-NH91; first compound 6.325 µM) of 0.715. The relative viability (LOU-NH91; first compound 20 µM) was 0.427, the relative viability (NCI-H1734; first compound 0.2 µM) was 0.294 and the relative viability (NCI-H1734; first compound 0.6325 µM) was 0.265. It also gave a relative viability (NCI-H1734; first compound 2 µM) of 0.233, a relative viability (NCI-H1734; first compound 6.325 µM) of 0.181 and a relative viability (NCI-H1734; first compound 20 µM) of 0.0526. The relative viability (NCI-H1355; first compound 0.2 µM) was 0.581, the relative viability (NCI-H1355; first compound 0.6325 µM) was 0.568 and the relative viability (NCI-H1355; first compound 2 µM) was 0.564. It also gave a relative viability (NCI-H1355; first compound 6.325 µM) of 0.629, a relative viability (NCI-H1355; first compound 20 µM) of 0.517 and a relative viability (NCI-H2342; first compound 0.2 µM) of 0.58. The relative viability (NCI-H2342; first compound 0.6325 µM) was 0.684, the relative viability (NCI-H2342; first compound 2 µM) was 0.408 and the relative viability (NCI-H2342; first compound 6.325 µM) was 0.405. It also gave a relative viability (NCI-H2342; first compound 20 µM) of 0.349, a relative viability (NCI-H1666; first compound 0.2 µM) of 0.592 and a relative viability (NCI-H1666; first compound 0.6325 µM) of 0.601. It also gave a relative viability (NCI-H1666; first compound 2 µM) of 0.66, a relative viability (NCI-H1666; first compound 6.325 µM) of 0.554 and a relative viability (NCI-H1666; first compound 20 µM) of 0.388. It also gave a relative viability (NCI-H441; first compound 0.2 µM) of 0.629, a relative viability (NCI-H441; first compound 0.6325 µM) of 0.667 and a relative viability (NCI-H441; first compound 2 µM) of 0.77. For the same compound, the relative viability (NCI-H441; first compound 6.325 µM) was 0.743, the relative viability (NCI-H441; first compound 20 µM) was 0.309 and the relative viability (RERF-LC-KJ; first compound 0.2 µM) was 0.53. The relative viability (RERF-LC-KJ; first compound 0.6325 µM) was 0.523, the relative viability (RERF-LC-KJ; first compound 2 µM) was 0.58 and the relative viability (RERF-LC-KJ; first compound 6.325 µM) was 0.498. It also gave a relative viability (RERF-LC-KJ; first compound 20 µM) of 0.431, a relative viability (SK-LU-1; first compound 0.2 µM) of 0.4 and a relative viability (SK-LU-1; first compound 0.6325 µM) of 0.371. The relative viability (SK-LU-1; first compound 2 µM) was 0.319, the relative viability (SK-LU-1; first compound 6.325 µM) was 0.344 and the relative viability (SK-LU-1; first compound 20 µM) was 0.24. For the same compound, the relative viability (H3255; first compound 0.2 µM) was 0.807, the relative viability (H3255; first compound 0.6325 µM) was 0.765 and the relative viability (H3255; first compound 2 µM) was 0.461. For the same compound, the relative viability (H3255; first compound 6.325 µM) was 0.615, the relative viability (H3255; first compound 20 µM) was 0.505 and the relative viability (NCI-H1975; first compound 0.2 µM) was 1.05. For the same compound, the relative viability (NCI-H1975; first compound 0.6325 µM) was 0.726, the relative viability (NCI-H1975; first compound 2 µM) was 0.878 and the relative viability (NCI-H1975; first compound 6.325 µM) was 0.738. It also gave a relative viability (NCI-H1975; first compound 20 µM) of 0.454, a relative viability (NCI-H647; first compound 0.2 µM) of 0.615 and a relative viability (NCI-H647; first compound 0.6325 µM) of 0.324. For the same compound, the relative viability (NCI-H647; first compound 2 µM) was 0.263, the relative viability (NCI-H647; first compound 6.325 µM) was 0.543 and the relative viability (NCI-H647; first compound 20 µM) was 0.0988. For the same compound, the relative viability (NCI-H1793; first compound 0.2 µM) was 0.44, the relative viability (NCI-H1793; first compound 0.6325 µM) was 0.316 and the relative viability (NCI-H1793; first compound 6.325 µM) was 0.414. It also gave a relative viability (NCI-H1793; first compound 20 µM) of 0.237, a relative viability (NCI-H1915; first compound 0.2 µM) of 0.444 and a relative viability (NCI-H1915; first compound 0.6325 µM) of 0.368. The relative viability (NCI-H1915; first compound 6.325 µM) was 0.389, the relative viability (NCI-H1915; first compound 20 µM) was 0.364 and the relative viability (NCI-H1944; first compound 0.2 µM) was 0.225. It also gave a relative viability (NCI-H1944; first compound 0.6325 µM) of 0.242, a relative viability (NCI-H1944; first compound 2 µM) of 0.222 and a relative viability (NCI-H1944; first compound 6.325 µM) of 0.243. It also gave a relative viability (NCI-H1944; first compound 20 µM) of 0.23, a relative viability (NCI-H1651; first compound 0.2 µM) of 0.848 and a relative viability (NCI-H1651; first compound 0.6325 µM) of 0.66. It also gave a relative viability (NCI-H1651; first compound 2 µM) of 0.723, a relative viability (NCI-H1651; first compound 6.325 µM) of 0.712 and a relative viability (NCI-H1651; first compound 20 µM) of 0.649. For the same compound, the relative viability (NCI-H2023; first compound 0.2 µM) was 0.461, the relative viability (NCI-H2023; first compound 0.6325 µM) was 0.327 and the relative viability (NCI-H2023; first compound 2 µM) was 0.389. For the same compound, the relative viability (NCI-H2023; first compound 6.325 µM) was 0.359, the relative viability (NCI-H2023; first compound 20 µM) was 0.35 and the relative viability (UMC-11; first compound 0.2 µM) was 0.215. The relative viability (UMC-11; first compound 0.6325 µM) was 0.183, the relative viability (UMC-11; first compound 2 µM) was 0.195 and the relative viability (UMC-11; first compound 6.325 µM) was 0.193. It also gave a relative viability (UMC-11; first compound 20 µM) of 0.201, a relative viability (NCI-H2405; first compound 0.2 µM) of 0.735 and a relative viability (NCI-H2405; first compound 0.6325 µM) of 0.812. It also gave a relative viability (NCI-H2405; first compound 6.325 µM) of 0.667, a relative viability (NCI-H2405; first compound 20 µM) of 0.329 and a relative viability (201T; first compound 0.2 µM) of 1.12. It also gave a relative viability (201T; first compound 0.6325 µM) of 0.912, a relative viability (201T; first compound 2 µM) of 0.899 and a relative viability (201T; first compound 6.325 µM) of 0.908. For the same compound, the relative viability (201T; first compound 20 µM) was 0.905, the relative viability (EPLC-272H; first compound 2 µM) was 0.186 and the relative viability (EPLC-272H; first compound 6.325 µM) was 0.196. For the same compound, the relative viability (EPLC-272H; first compound 20 µM) was 0.105.
